Like-named read-outs stand apart in the source and are kept apart here.
How the values were obtained:
[1] = tested on: Streptococcus pneumonia (Sp); settings: cited from earlier work; for Sp MIC90: Table 7
[2] = tested on: methicillin resistant Staphylococcus aureus (MRSA); settings: Table 7; cited from earlier work
Sa = settings: Table 7; cited from earlier work
[3] = tested on: Pseudomonas aeruginosa (Pa); settings: cited from earlier work
[4] = Rat pharmacokinetic model (IV vs microspray aerosol, intratracheal); format: in vivo, rats; settings: rat, inhaled or intranasal, IT, 10 mg/kg
Experimental: […] Blood samples are taken at various times over 3 hours to determine the plasma pharmacokinetic parameters. […] The plasma and tissue concentrations are determined by an HPLC method and the data are then fit using WinNonlin.

[5] = tested on: P. aeruginosa strain PAM 1723; assay: Mouse lung infection efficacy model; settings: Pseudomonas aeruginosa, PAM1723, in Mus musculus
Experimental: The inoculum is adjusted to ca. 5×10^6 CFU/ml by correlation of absorbance at 600 nm with predetermined plate counts. […] On day 5, mice are infected by an intratracheal instillation of 0.05 ml of inoculum while under isoflurane anesthesia (5% isoflurane in oxygen running at 4 L/min). […] Mice are sacrificed 1 and 4 hours after treatment, their lungs removed, homogenized and plated to determine colony counts.

MSSA = settings: Table 6; cited from earlier work
physchem = assay: physchem
Experimental: A 2 to 20 mg sample of each antibiotic was weighed into sterile plastic tubes and brought up with a volume of sterile water to make a 10 mg/mL solution or suspension of the antibiotic. Samples were incubated for approximately 10 minutes at room temperature with occasional mixing, prior to further handling.
The insoluble solutions were titrated with 1N HCl to the point of visible solubility, and the pH of the solubilized solution determined.
After the pH adjustment, and following a further 10 minute incubation period with occasional mixing, the final appearance of the solutions was determined, just prior to the aerosol tolerability and taste test.

[6] = in vivo
Experimental: In the second test, the tolerability and taste of a small aerosol sample from a 0.5 ml aliquot of the test formulation was determined in a single healthy human volunteer, following nebulization in a PARI eFlow nebulizer (Table 12).
The tolerability and taste of the drug during a very brief administration period and for a period of 10 minutes post administration were monitored. Tolerability parameters were of the following types: (i) cough, cough sensation, or sneezing (ii) irritation, burning or tightness of throat, (ii) irritation or runniness in nasal passages or eyes, (iii) irritation, burning or tightness of the lungs or shortness of breadth, and (iv) dizziness, headache, nausea or other systemic effects.

SMILES | Sp MIC90 [1] [µg/mL] | MRSA MIC90 [2] [µg/mL] | Sa MIC90 (Sa) [µg/mL] | Pa MIC90 ([3]; Table 7) [µg/mL] | other results
CNC1CCCN(c2c(F)cc3c(=O)c(C(=O)O)cn(C4CC4)c3c2OC)C1 (stereo not drawn) [Balofloxacin] | 0.5 | 8 | 0.25 | 32 | –
NC1CCN(c2c(F)cc3c(=O)c(C(=O)O)cn(C4CC4)c3c2Cl)C1 (stereo not drawn) [Clinafloxacin] | 0.06 | 2 | 0.06 | 4 | AUC ([4]; epithelial lining fluid (ELF)): 30800 ng·h/mL; AUC(0-inf) ([4]; serum): 3200 ng·h/mL; half-life ([4]; serum, read-out: Serum t1/2 (converted)): 44.4 min; log reduction at 10 mg/kg ([5]; 1 h, read-out: DeltaLOG CPU 1 hr, route IT, dose 10 mg/kg, 1 hr post-drug administration): 2.71; log reduction at 25 mg/kg ([5]; 1 h, read-out: DeltaLOG CPU 1 hr, route IT, dose 25 mg/kg, 1 hr post-drug administration): 2.86; log reduction at 10 mg/kg ([5]; 4 h, read-out: DeltaLOG CPU 4 hr, route IT, dose 10 mg/kg, 4 hr post-drug administration): 2.4; log reduction at 25 mg/kg ([5]; 4 h, read-out: DeltaLOG CPU 4 hr, route IT, dose 25 mg/kg, 4 hr post-drug administration): 2.47; log reduction at 10 mg/kg ([5]; ip, 1 h, read-out: DeltaLOG CPU 1 hr, route IP, dose 10 mg/kg, 1 hr post-drug administration): 0.96; log reduction at 25 mg/kg ([5]; ip, 1 h, read-out: DeltaLOG CPU 1 hr, route IP, dose 25 mg/kg, 1 hr post-drug administration): 1.32; log reduction at 10 mg/kg ([5]; ip, 4 h, read-out: DeltaLOG CPU 4 hr, route IP, dose 10 mg/kg, 4 hr post-drug administration): 1.39; log reduction at 25 mg/kg ([5]; ip, 4 h, read-out: DeltaLOG CPU 4 hr, route IP, dose 25 mg/kg, 4 hr post-drug administration): 1.33
CN1C[C@@H]2C[C@H]1CN2c1cc2c(cc1F)c(=O)c(C(=O)O)cn2C1CC1 [Danofloxacin] | – | – | 0.125 | >16 | –
CN1CCN(c2cc3c(cc2F)c(=O)c(C(=O)O)cn3-c2ccc(F)cc2)CC1 [Difloxacin] | 2 | – | 0.5 | 32 | –
CCn1cc(C(=O)O)c(=O)c2cc(F)c(N3CCNCC3)nc21 [Enoxacin] | 16 | >4 | 1 | >32 | –
CCN1CCN(c2cc3c(cc2F)c(=O)c(C(=O)O)cn3C2CC2)CC1 [Enrofloxacin] | 1 | 8 | 0.125 | >16 | –
CN1CCN(c2c(F)cc3c(=O)c(C(=O)O)cn(CCF)c3c2F)CC1 [Fleroxacin] | 8 | >4 | 1 | 32 | –
C[C@H]1NCc2cc(-c3ccc4c(=O)c(C(=O)O)cn(C5CC5)c4c3OC(F)F)ccc21 [Garenoxacin] | 0.06 | 8 | 0.06 | >32 | –
Cc1c(F)c(N2CCNC(C)C2)cc2c1c(=O)c(C(=O)O)cn2C1CC1 (stereo not drawn) [Grepafloxacin] | 0.5 | 32 | 0.125 | >32 | –
CN1CCN(c2c(F)cc3c(=O)c(C(=O)O)cn4c3c2OCN4C)CC1 [Marbofloxacin] | – | – | – | – | MSSA MIC90 (MSSA): 2 µg/mL; SP MIC90 ([1]; Table 6): 2 µg/mL; Initial Solution pH (physchem; 10 mg/mL in sterile water): 6.5; Initial Solution Appearance (physchem; 10 mg/mL in sterile water, room temperature): white, very turbid, visible; After pH Adjustment Appearance (physchem; 10 mg/mL, titrated with 1N HCl): White, turbid, visible; After pH Adjustment pH (physchem; 10 mg/mL, titrated with 1N HCl): 1.5; pH of final solution (physchem; final solution, 10 mg/mL): 1.5; solubility on titration with 1N HCl (physchem; pH 1.5): solubility was not reached by pH 1.5; Pa MIC90 ([3]; Table 6): 8 µg/mL
COc1c(N2C[C@@H]3CCCN[C@@H]3C2)c(F)cc2c(=O)c(C(=O)O)cn(C3CC3)c12 [Moxifloxacin] | – | – | – | – | solubility/pH characteristics (physchem): best solubility/pH characteristics; solubility at 10 min (physchem; aqueous buffer, thermodynamic from solid): > 10000 µg/mL; Aerosol Tolerability and Taste [6]: moderate bitter unpleasant taste, some; cough on aerosol exposure [6]: associated with cough

— patent US10987357B2, “Aerosolized fluoroquinolones and uses thereof” (Horizon Orphan, LLC, priority 2005, dated 2021)
